Reference: patent US8048862B2, “Macrocyclic inhibitors of hepatitis C virus replication” (priority 2008, dated 2011)

What was measured:
[1] = system: hepatitis C virus (HCV RNA levels), chronic hepatitis C genotype 1; assay: ITMN-191 monotherapy, 14 days, effect on HCV viral load in patients; format: in vivo; settings: for median reduction in HCV RNA levels at end of treatment (EOT) (Day 14): sodium salt oral
Procedure: The study was designed to provide the plasma pharmacokinetics (PK) of multiple ascending daily oral doses of ITMN-191 monotherapy and to evaluate the viral kinetics (VK) of multiple ascending daily oral doses of ITMN-191 monotherapy in patients, as measured by changes from Baseline in hepatitis C virus ribonucleic acid (HCV RNA) levels. The ITMN-191 was administered in the form of its sodium salt.
In Part A and Part B, up to six cohorts (treatment arms) of 10 patients each were planned. In Part A, up to five cohorts of 10 treatment-naïve patients per cohort were planned to receive multiple ascending doses of study drug. Patients within each of the five cohorts were randomly assigned 8:2 to receive either ITMN-191 or placebo for 14 days. In Part B, one cohort of non-responder (NR) patients (Cohort 6) was planned to receive a single dose level of study drug for 14 days. Patients in Cohort 6 were randomly assigned 8:2 to receive either ITMN-191 (8 patients) or placebo (2 patients).
The treatment period consisted of 14 days of blinded study drug. In Part A, optional Standard of Care (SOC) consisting of PEG-IFN-α plus ribivarin (RBV) therapy was provided to treatment-naïve patients 24 hours after the last dose on Day 14. In Part B, NR patients were not permitted to start any additional HCV therapy before Day 44.
Efficacy was evaluated by log10 reductions in HCV RNA levels and reductions in ALT values using the Efficacy-Evaluable Population, defined as those patients who received at least 90% of prescribed doses of assigned blinded study drug. Three patients in the treatment-naive 200 mg q12h cohort received less than the assigned randomized dose and were excluded from all efficacy analyses. The HCV RNA levels were determined by Roche COBAS Taqman HCV/HPS test, v2.0. This is a reverse transcriptase PCR method.
In Parts A and B, rebound, plateau, and continuous decline of virologic response profiles were defined based on the HCV RNA level at end of treatment (EOT) relative to the nadir HCV RNA level. […] The frequency of rebound for treatment-naïve patients (Part A) was higher in the 100 mg […] treatment arm (4 patients) than in the higher dose treatment arms (2 to 3 patients). The frequency of rebound for NR patients (Part B) was the same (2 patients) as for the treatment-naïve patients in the 100 mg q8h treatment arm. However, there were no statistically significant differences in ITMN-191 AUC, Cmax, or Cτ between rebound, plateau, and continual decline groups. At EOT, every patient classified as experiencing virologic rebound carried NS3 variants in which arginine at amino acid position 155 was replaced, at least in part, by lysine.

[2] = system: hepatitis C virus (HCV RNA levels), chronic hepatitis C genotype 1; assay: ITMN-191 combination therapy with SOC (PEG-IFN alfa-2a and ribavirin), 14 days, effect on HCV viral load in patients; format: in vivo; settings: for HCV RNA (<43 IU/mL) (%): after 14 days of treatment; for median change in HCV RNA from baseline: 14 days of triple combination therapy
Text: This is a double-blind, placebo-controlled, multicenter study in treatment-naïve patients with chronic hepatitis C genotype 1 infection. All patients receive standard of care (SOC) treatment with PEG-IFN alfa-2a and weight-based ribavirin in accordance with the product labeling. In addition to this standard of care treatment, patients are randomized to receive either ITMN-191 or matching placebo, administered in the fed state, for 14 complete days, and a single dose on Day 15. PEG-IFN alfa-2a and ribavirin is provided from Day 0 and following the completion of study drug treatment on Day 15 through Day 44. No other HCV therapies are permitted prior to Day 44. All patients receive SOC and then are administered a pill containing either ITMN-191 or placebo. The ITMN-191 was administered in the form of its sodium salt.
Patients are admitted to a research facility and initiate PEG-IFN alfa-2a and ribavirin on Day O, Study drug (ITMN-191 or placebo) administration begins on Day 1 and continues to the morning of Day 15, and patients are discharged from the research facility on Day 16. Meals and activity levels are standardized across research facilities. Patients are contacted by telephone on Day 21 and return to the research facility for the Safety Follow-up Visit on Day 28 and the End of Study Visit on Day 44.
Over the course of the study, blood samples are obtained for clinical laboratory analysis and for PK (pharmokinetics) and VK (viral kinetics). In addition, blood samples to assess VR (viral rebound) are obtained. To monitor potential cardiac toxicity, cardiac troponin are assessed every day during the treatment period.
End of treatment (EOT) and nadir HCV RNA levels were used to define virologic rebound, continual decline, and plateau response patterns. NS3 protease domain was amplified and population sequenced by nested reverse transcription polymerase chain reaction (RT-PCR). Amplicons were cloned into a novel NS3 phenotyping vector and this plasmid used for clonal sequencing. The HCV RNA levels were determined by Roche COBAS Taqman HCV/HPS test, v2.0. This is a reverse transcriptase PCR method.

[3] = NR (nonresponder) patients, 300 mg q8h, 14 days
[4] = all ITMN-191 treated patients, Parts A and B, monotherapy 14 days
[5] = treatment-naïve patients, 200 mg q8h, 14 days
[6] = treatment-naïve patients, 200 mg q12h, 14 days
[7] = any combination therapy cohort, 14 days

`CC(C)(C)OC(=O)N[C@H]1CCCCC/C=C\[C@@H]2C[C@@]2(C(=O)NS(=O)(=O)C2CC2)NC(=O)[C@@H]2C[C@@H](OC(=O)N3Cc4cccc(F)c4C3)CN2C1=O` [ITMN-191] was tested, and the “median ALT decline from Baseline at EOT” value [1, 3] was −34.5 U/L, the “median maximum reduction in HCV RNA levels” value (“median maximum reduction” below) [1, 3] was −2.93 log10 IU/mL and the “median reduction in HCV RNA at EOT” value [1, 3] was −2.46 log10 IU/mL. The frequency of rebound ([1]; NR patients (Part B)) was 2 patients, the “patients experiencing continual decline in HCV RNA level” value [1, 4] was 14/40 and the patients experiencing plateau [1, 4] was 12/40. For the same compound, the “median maximum post-Baseline change in HCV RNA” value ([1]; single NR cohort (Part B), 300 mg q12h dose as printed in the conclusions) was −2.93 log10 IU/mL, the frequency of rebound ([1]; treatment-naïve patients, 100 mg q2h treatment arm) was 4 patients and the frequency of rebound ([1]; treatment-naïve patients, 100 mg q8h treatment arm) was 2 patients. For the same compound, the “median EOT reduction of ALT” value [1, 5] was −37.5 U/L, the “median maximum reduction” value [1, 5] was −3.90 log10 IU/mL and the “median reduction in HCV RNA levels at end of treatment (EOT) (Day 14)” value [1, 5] was −3.76 log10 IU/mL. For the same compound, the “median maximum reduction” value [1, 6] was −3.17 log10 IU/mL, the “median reduction in HCV RNA levels at end of treatment (EOT) (Day 14)” value [1, 6] was −3.12 log10 IU/mL and the “HCV RNA (<43 IU/mL) (%)” value ([2]; 100 mg q8h (300 mg) and SOC) was 75%. For the same compound, the “Median Change Log10 (IU/mL) HCV RNA at EOT” value (“Median Change Log10” below) ([2]; 100 mg q8h (300 mg) in combination with SOC, 14 days) was −5.5 Log10 (IU/mL), the “HCV RNA (<43 IU/mL) (%)” value ([2]; 200 mg q8h (600 mg) and SOC) was 88% and the “Median Change Log10” value ([2]; 200 mg q8h (600 mg) in combination with SOC, 14 days) was −5.7 Log10 (IU/mL). For the same compound, the “Median Change Log10” value ([2]; 300 mg q8h (900 mg) in combination with SOC, 14 days) was −5.6 Log10 (IU/mL), the “Median Change Log10” value ([2]; 400 mg q12h (800 mg) in combination with SOC, 14 days) was −4.7 Log10 (IU/mL) and the “Median Change Log10” value ([2]; 600 mg q12h (1200 mg) in combination with SOC, 14 days) was −5.4 Log10 (IU/mL). For the same compound, the “Median Change Log10” value ([2]; 900 mg q12h (1800 mg) in combination with SOC, 14 days) was −5.5 Log10 (IU/mL), the “patients with HCV RNA below the limit of quantification (<25 IU/mL)” value ([2]; all doses and intervals (32 of 45 patients), combination with SOC, 14 days) was 71% and the “patients with HCV RNA levels below 9.3 IU/mL” value [2, 7] was “at least 13%”. For the same compound, the “patients with HCV RNA levels below 25 IU/mL” value [2, 7] was “at least 57%”, the “median change in HCV RNA from baseline” value ([2]; best performing q8h cohort) was −5.7 log and the “median change in HCV RNA from baseline” value ([2]; best performing q12h cohort) was −5.5 log. The “median change in HCV RNA from baseline” value ([2]; five of the six cohorts) was “exceeded 5 logs”.
